No end group written: not given here.
Legend:
[1] = test system: natural Mi III antibody reactive human serums; test: Positive serum reactivity of modified RBCs in the field; assay type: cell-based; parameters: key: 0 or ‘−’ no agglutination; 0 or ‘−’ no agglutination; 1+ or 3=very weak agglutination; 1+ or 3=very weak agglutination; 2+ or 5=weak agglutination; 2+ or 5=weak agglutination; 3+ or 8=moderate strong agglutination; 3+ or 8=moderate strong agglutination; 4+ or 10/12=strong agglutination; 4+ or 10/12=strong agglutination; 4+ or 10/12=strong agglutination; settings: 22 at 50, 17 and 24 at 200 μg/ml; 3 h RT then 18 h 4° C.
Procedure: (§1) The suspensions are either: • 1. incubated for 2 hours at 37° C. before being washed and suspended in a cell medium for serological analysis at a concentration of 0.8 to 3% (Method 1); or • 2. incubated for 3 to 4 hours at room temperature (circa 25° C.) followed by 18 hours at 4° C. before being washed and suspended in a cell medium for serological analysis at a concentration of 0.8 to 3% (Method 2).
(§2) Serological reactions are graded or scored by either of two established systems (0 or ‘−’ no agglutination, 1+ or 3=very weak agglutination, 2+ or 5=weak agglutination, 3+ or 8=moderate strong agglutination, 4+ or 10/12=strong agglutination)

[2] = test system: TAP1 serum (Taiwan Miltenberger antibody positive sample); test: Anti-MUT serum (TAP1) reactivity of modified RBCs (saline and AHG); assay type: cell-based, human; parameters: key: 0 or ‘−’ no agglutination; 0 or ‘−’ no agglutination; 1+ or 3=very weak agglutination; 1+ or 3=very weak agglutination; 2+ or 5=weak agglutination; 2+ or 5=weak agglutination; 3+ or 8=moderate strong agglutination; 3+ or 8=moderate strong agglutination; 4+ or 10/12=strong agglutination; 4+ or 10/12=strong agglutination; 4+ or 10/12=strong agglutination; settings: construct 50 μg/ml
Procedure: as §1, §2

M24: DOPE peptide-lipid construct: Hil peptide EETGETGQLV, leader c, spacer CMG(2) (EETGETGQLVC; also: DOPE peptide-lipid construct via leader Cys, spacer CMG(2))
8: score vs Mi III reactive serum 942433855-3 [1] | score vs Mi III reactive serum 942753165-4 [1] | score vs Mi III reactive serum 9425256505 [1]
5: score vs Mi III reactive serum 942448627-8 [1] | score vs Mi III reactive serum 9328118428 [1] | score vs Mi III reactive serum 9424292604 [1] | score vs Mi III reactive serum 9427455417 [1] | score vs Mi III reactive serum S-3 [1]
3: score vs Mi III reactive serum 942423002-4 [1] | score vs Mi III reactive serum 942762589-1 [1] | score vs Mi III reactive serum 9328154853 [1]
0: score vs Mi III reactive serum 912485657-9 [1] | score vs Mi III reactive serum 914146821-8 [1] | score vs Mi III reactive serum 922390844-5 [1] | score vs Mi III reactive serum 926190919-0 [1] | score vs Mi III reactive serum 926555294-1 [1] | score vs Mi III reactive serum 927175131-4 [1] | score vs Mi III reactive serum 927299700-1 [1] | score vs Mi III reactive serum 927516053-2 [1] | score vs Mi III reactive serum 927619701-8 [1] | score vs Mi III reactive serum 932360876-4 [1] | score vs Mi III reactive serum 932467774-5 [1] | score vs Mi III reactive serum 932809044-1 [1] | score vs Mi III reactive serum 942223755-1 [1] | score vs Mi III reactive serum 942404708-4 (row interpreted Mur) [1] | score vs Mi III reactive serum 942404708-4 (row interpreted other) [1] | score vs Mi III reactive serum 942421413-0 [1] | score vs Mi III reactive serum 942433813-3 [1] | score vs Mi III reactive serum 942442720-2 [1] | score vs Mi III reactive serum 9322338631 [1] | score vs Mi III reactive serum 9325490091 [1] | score vs Mi III reactive serum 9327986660 [1] | score vs Mi III reactive serum 9328791834 [1] | score vs Mi III reactive serum 9424248012 [1] | score vs Mi III reactive serum 9424396133 [1] | score vs Mi III reactive serum 9427613497 [1] | score vs Mi III reactive serum 9427615156 [1] | TAP 1 Serum, AHG score [2] | TAP 1 Serum, Saline score [2]
